Data from patent EP1614683B1, “Indazole compounds and pharmaceutical compositions for inhibiting protein kinases, and methods for their use” (priority 1999, dated 2001).
Read-outs that look alike come from different tables or passages of the source.

Tests used:
[1] = biological target: unphosphorylated VEGF-R2Δ50 (Homo sapiens, UniProt P35968, DEL940-989/E990V); assay: biochemical; conditions: for inhibition at 1 µM: read-out: FLVK* (% inhibition); for inhibition at 0.05 µM: read-out: FLVK ** (% inhibition)
Sequence of unphosphorylated VEGF-R2Δ50 (P35968 with tags, fused parts or gaps DEL940-989/E990V limits assumed): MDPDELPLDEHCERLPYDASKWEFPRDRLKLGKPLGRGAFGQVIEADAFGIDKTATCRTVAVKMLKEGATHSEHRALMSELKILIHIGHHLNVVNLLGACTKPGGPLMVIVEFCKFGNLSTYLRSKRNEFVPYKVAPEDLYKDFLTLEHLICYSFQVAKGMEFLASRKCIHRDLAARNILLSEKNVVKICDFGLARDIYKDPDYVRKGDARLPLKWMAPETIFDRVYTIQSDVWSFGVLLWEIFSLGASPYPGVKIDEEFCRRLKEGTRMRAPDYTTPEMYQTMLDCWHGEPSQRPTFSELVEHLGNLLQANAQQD

[2] = system: human umbilical vein endothelial cells (HUVEC); assay: HUVEC proliferation assay (VEGF-stimulated, MTT); format: cell-based; conditions: Table 1
Experimental: This assay determines the ability of a test compound to inhibit the growth factor-stimulated proliferation of human umbilical vein endothelial cells ("HUVEC"). HUVEC cells (passage 3-4, Clonetics, Corp.) were thawed into EGM2 culture medium (Clonetics Corp) in T75 flasks. Fresh EGM2 medium was added to the flasks 24 hours later. Four or five days later, cells were exposed to another culture medium (F12K medium supplemented with 10% fetal bovine serum (FBS), 60 µg/mL endothelial cell growth supplement (ECGS), and 0.1 mg/mL heparin). Exponentially-growing HUVEC cells were used in experiments thereafter. Ten to twelve thousand HUVEC cells were plated in 96-well dishes in 100 µl of rich, culture medium (described above). The cells were allowed to attach for 24 hours in this medium. The medium was then removed by aspiration and 105 µl of starvation media (F12K+1% FBS) was added to each well. After 24 hours, 15 µl of test agent dissolved in 1% DMSO in starvation medium or this vehicle alone was added into each treatment well; the final DMSO concentration was 0.1%. One hour later, 30 µl of VEGF (30 ng/mL) in starvation media was added to all wells except those containing untreated controls; the final VEGF concentration was 6 ng/mL. Cellular proliferation was quantified 72 hours later by MTT dye reduction, at which time cells were exposed for 4 hours MTT (Promega Corp.).

[3] = biological target: human FGF-R1 (Homo sapiens, UniProt P11362, C488A/C584S/L457V); assay: FGF-R spectrophotometric assay; format: biochemical; conditions: Table 1; compound concentration 1 µM; read-out: FGF-P* (% inhibition)
Sequence of human FGF-R1 (P11362 456-766 L457V/C488A/C584S): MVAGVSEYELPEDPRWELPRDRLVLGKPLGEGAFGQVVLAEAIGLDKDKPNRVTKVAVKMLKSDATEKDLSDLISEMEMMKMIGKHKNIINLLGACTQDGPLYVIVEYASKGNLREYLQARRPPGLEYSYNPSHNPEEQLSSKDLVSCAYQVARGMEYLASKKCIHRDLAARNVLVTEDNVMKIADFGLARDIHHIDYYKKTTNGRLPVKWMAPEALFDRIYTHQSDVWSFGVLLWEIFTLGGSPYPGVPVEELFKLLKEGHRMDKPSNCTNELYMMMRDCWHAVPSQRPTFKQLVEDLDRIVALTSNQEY
Experimental: The spectrophotometric assay was carried out as described above for VEGF-R2, except for the following changes in concentration: FGF-R = 50 nM, ATP = 2 mM, and poly(E4Y1) =15 mM.

[4] = biological target: LCK tyrosine kinase (Homo sapiens, UniProt P06239, C224D/P223M); assay: LCK spectrophotometric assay; format: biochemical; conditions: Table 1; compound concentration 1 µM; read-out: Lck-P* (% inhibition)
Sequence of LCK tyrosine kinase (P06239 223-509 P223M/C224D): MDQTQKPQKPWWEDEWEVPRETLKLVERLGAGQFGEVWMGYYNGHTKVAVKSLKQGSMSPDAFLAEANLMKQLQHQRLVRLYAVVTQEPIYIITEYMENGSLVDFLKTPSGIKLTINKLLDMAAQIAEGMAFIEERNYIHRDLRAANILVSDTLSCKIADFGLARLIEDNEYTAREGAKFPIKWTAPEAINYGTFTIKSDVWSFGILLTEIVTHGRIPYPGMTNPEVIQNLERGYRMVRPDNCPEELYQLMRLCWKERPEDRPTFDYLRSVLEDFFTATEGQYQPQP
Experimental: The spectrophotometric assay was carried out as described above for VEGF-R2, except for the following changes in concentration: LCK = 60 nM, MgCl2 = 0 mM, poly(E4Y1) = 20 mM.

[5] = in vitro; format: in vitro ADME, human
Experimental: Compound metabolism in human liver microsomes was measured by LC-MS analytical assay procedures as follows. First, human liver microsomes (HLM) were thawed and diluted to 5 mg/mL with cold 100 mM potassium phosphate (KPO4) buffer. Appropriate amounts of KPO4 buffer, NADPH-regenerating solution (containing B-NADP, glucose-6-phosphate, glucose-6-phosphate dehydrogenase, and MgCl2), and HLM were preincubated in 13 x 100 mm glass tubes at 37 C for 10 min. (3 tubes per test compound--triplicate). Test compound (5 µM final) was added to each tube to initiate reaction and was mixed by gentle vortexing, followed by incubation at 37 °C. At t=0, 2 h, a 250-µL sample was removed from each incubation tube to separate 12 x 75 mm glass tubes containing 1 mL ice-cold acetonitrile with 0.05 µM reserpine. […] Supernatant was transferred to new 12 x 75 mm glass tubes and evaporated by Speed-Vac centrifugal vacuum evaporator. Samples were reconstituted in 200 µL 0.1 % formic acid/acetonitrile (90/10) and vortexed vigorously to dissolve. The samples were then transferred to separate polypropylene microcentrifuge tubes and centrifuged at 14000 x g for 10 min. (Fisher Micro 14, S/N M0017580). For each replicate (#1-3) at each timepoint (0 and 2 h), an aliquot sample of each test compound was combined into a single HPLC vial insert (6 total samples) for LC-MS analysis, which is described below.

[6] = Homo sapiens, HUVEC, + albumin, read-out: HUVEC + albumin IC50
[7] = Homo sapiens, HUVEC, read-out: HUVEC IC50
[8] = human liver microsomes, 5 µM test compound, 37 °C, 2 h

| Compound | IC50 [2, 6] | inhibition at 0.05 µM [1] | inhibition at 1 µM [3] | inhibition at 1 µM [4] | further results |
| --- | --- | --- | --- | --- | --- |
| C(=C\c1n[nH]c2cc(-c3ccncc3)ccc12)/c1nc2ccccc2[nH]1 [Reference Example 29(q), 6-pyrid-4-yl-3-E-[2-(benzimidazol-2-yl)ethenyl]-1H-indazole] |  |  |  |  | inhibition at 1 µM [1]: 11% |
| Oc1ccc(-c2ccc3c(/C=C/c4ccccc4)n[nH]c3c2)cn1 [Reference Example 28(c), 6-(2-hydroxypyridin-5-yl)-3-E-styryl-1H-indazole] |  |  |  |  | inhibition at 1 µM [1]: 34% |
| N#CCNC(=O)c1ccccc1Sc1ccc2c(/C=C/c3ccccn3)n[nH]c2c1 [Reference Example 35(w), 6-[2-(Cyanomethylcarbamoyl)phenylsulfanyl]-3-E-[2-(pyridin-2-yl)ethenyl]-1H-indazole] | 35 nM | 59% |  |  |  |
| Cc1cc(C(=O)Nc2cccc(C(=O)c3ccc4c(/C=C/c5ccccn5)n[nH]c4c3)c2)cc(Cl)n1 [Reference Example 41(q), 6-[3-((2-chloro-6-methylpyridin-4-yl)carboxamido)benzoyl]-3-E-[2-(pyridin-2-yl)ethenyl]-1H-indazole] |  | 100% | 91% | 53% |  |
| CC(=O)Nc1cc(C(=O)c2ccc3c(/C=C/c4ccccn4)n[nH]c3c2)ccc1C [Reference Example 41(gg), 6-(3-acetamido-4-methylbenzoyl)-3-E-[2-(pyridin-2-yl)ethenyl]-1H-indazole] | 9.5 nM | 84% |  | 27% |  |
| CC(=O)c1ccc(C(=O)Nc2cccc(C(=O)c3ccc4c(/C=C/c5ccccn5)n[nH]c4c3)c2)s1 [Reference Example 41(e), 6-[3-((5-acetylthien-2-yl)carboxamido)benzoyl]-3-E-[2-(pyridin-2-yl)ethenyl]-1H-indazole] | 5.6 nM |  | 31% | 21% | IC50 [2, 7]: 0.15 nM; IC50 ([2]; + albumin, read-out: HUVEC + albumin IC50): 6.1 nM; % remain (HLM, 2 h) [5, 8]: 22% |
| O=CNc1ccccc1/C=C/c1n[nH]c2cc(C(=O)c3cccc(NC(=O)c4ccccc4)c3)ccc12 [Example 43, 6-(3-Benzamidobenzoyl)-3-E-[2-(2-formamidophenyl)ethenyl]-1H-indazole] |  |  |  |  | % remain (HLM, 2 h) ([5]; human, microsomes, 2 h, 5 µM): 2% |
| NC(=O)c1ccccc1Sc1ccc2c(/C=C/c3ccccn3)n[nH]c2c1 [Reference Example 35(d), 6-(2-Carbamoylphenylsulfanyl)-3-E-[2-(pyridin-2-yl)ethenyl]-1H-indazole] |  | 76% |  |  |  |
| CC(=O)Nc1cc(C(=O)c2ccc3c(/C=C/c4ccccn4)n[nH]c3c2)c(C)cc1C [Reference Example 41(nn), 6-(5-acetamido-2,4-dimethylbenzoyl)-3-E-[2-(pyridin-2-yl)ethenyl]-1H-indazole] |  | 57% | 91% | 7% |  |
| CNC(=O)c1ccccc1Nc1ccc2c(/C=C/c3ccccn3)n[nH]c2c1 [Example 39(a), 6-[2-(Methylcarbamoyl)phenylanzino]-3-E-[2-(pyridin-2-yl)ethenyl]-1H-indazole] |  |  |  |  | % remain (HLM, 2 h) ([5]; human, microsomes, 2 h, 5 µM): 70% |
| Cc1cc(C(=O)Nc2cc(Nc3ccc4c(/C=C/c5ccccn5)n[nH]c4c3)c(F)cc2C)n(C)n1 [Example 48(b), 6-[N-(5-((1,3-Dimethyl-1H-pyrazol-5-yl)carboxamido)-2-fluoro-4-methylphenyl)amino]-3-E-[2-(pyridin-2-yl)ethenyl]-1H-indazole] |  | 97% | 77% | 6% |  |
| CONC(=O)c1ccccc1Sc1ccc2c(/C=C/c3ccccn3)n[nH]c2c1 [Reference Example 35(r), 6-[2-(methoxycarbamoyl)phenylsulfanyl]-3-E-[2-(pyridin-2-yl)ethenyl]-1H-indazole] | 2.3 nM |  |  | 16% | IC50 [2, 7]: 0.36 nM; % remain (HLM, 2 h) [5, 8]: 51% |
| O=C(N/N=C/c1ccccn1)c1ccccc1Sc1ccc2c(/C=C/c3ccccn3)n[nH]c2c1 [Reference Example 36(b)] |  | 85% | 43% | 22% |  |
| O=C(NCc1cccc(F)c1)c1ccccc1Sc1ccc2c(/C=C/c3ccccn3)n[nH]c2c1 [Reference Example 35(ff)] | 5.8 nM |  | 75% | 25% | % remain (HLM, 2 h) [5, 8]: 31% |
| O=C(c1cccc(NC(=O)c2cccc3[nH]ccc23)c1)c1ccc2c(/C=N/n3cccc3)n[nH]c2c1 [Example 45(a), 6-[3-(Indol-4-ylcarboxamido)benzoyl]-3-E-[N-(pyrrol-1-yl)iminomethyl]-1H-indazole] |  |  |  |  | % remain (HLM, 2 h) ([5]; human, microsomes, 2 h, 5 µM): 97% |
| CNCCNC(=O)c1ccccc1Sc1ccc2c(/C=C/c3ccccn3)n[nH]c2c1 [Reference Example 35(gg), 6-[2-(2-(methylamino)ethylcarbamoyl)phenylsulfanyl]-3-E-[2-(pyridin-2-yl)ethenyl]-1H-indazole] |  | 23% |  |  |  |
| CN(c1cccc(NC(=O)c2ccccc2)c1)c1ccc2c(/C=C/c3ccccc3)n[nH]c2c1 [12(b), N-{3-[Methyl-(3-styryl-1H-indazol-6-yl)-amino]-phenyl}-benzamide] | 44 nM |  |  | 32% | IC50 [2, 7]: 4.8 nM; remaining at 2 h, 5 µM ([5]; human, microsomes): 29% |
| Cc1cc(C(=O)Nc2cccc(C(=O)c3ccc4c(/C=C/c5ccccn5)n[nH]c4c3)c2)n(C(C)C)n1 [Reference Example 41(x), 6-[3-((1-Isopropyl-3-methyl-1H-pyrazol-5-yl)carboxamido)benzoyl]-3-E-[2-(pyridin-2-yl)ethenyl]-1H-indazole] | 4.6 nM | 98% |  | 66% |  |
| C(=C\c1n[nH]c2cc(-c3cccnc3)ccc12)/c1ccccc1 [Reference Example 27(e), 6-pyridin-3-yl-3-E-styryl-1H-indazole] |  |  |  |  | inhibition at 1 µM [1]: 34% |
| O=C(Nc1cccc(C(=O)c2ccc3c(/C=C/c4ccccn4)n[nH]c3c2)c1)c1ccncc1 [Reference Example 41(b), 6-[3-(pyridin-4-ylcarboxamido)benzoyl]-3-E-[2-(pyridin-2-yl)ethenyl]-1H-indazole] | 9.8 nM |  | 31% | 24% | IC50 [2, 7]: 2 nM; remaining at 2 h, 5 µM ([5]; human liver microsomes, 5 µM test compound, 37 °C, 2 h, read-out: % remain (HLM, 2 h)): 80% |
| C#CCNC(=O)c1ccccc1C(=O)c1ccc2c(/C=C/c3ccccn3)n[nH]c2c1 [Example 56] |  | 5% |  |  |  |
| O=C(Nc1cccc(C(=O)c2ccc3c(/C=C/c4ccccc4)n[nH]c3c2)c1)c1ccnc(Cl)c1 [19(o), 6-[3-(2-chloropyridin-4-ylcarboxamido)benzoyl]-3-E-styryl-1H-indazole] |  | 89% |  |  |  |
| COc1cccc(/C=C/c2n[nH]c3cc(-c4ccncc4)ccc23)c1 [Reference Example 29(e)] |  |  |  |  | inhibition at 1 µM [1]: 33% |
| C(=C\c1n[nH]c2cc(-c3ccncc3)ccc12)/c1ccccc1 [Reference Example 27(f)] |  |  |  |  | inhibition at 1 µM [1]: 49% |
| O=C(c1cccc(NC(=O)c2cccc(Cl)n2)c1)c1ccc2c(/C=C/c3ccccc3)n[nH]c2c1 [19(m), 6-[3-(6-chloropyridin-2-ylcarboxamido)benzoyl]-3-E-styryl-1H-indazole] | 94 nM |  | 23% | 35% | % remain (HLM, 2 h) [5, 8]: 61% |
